According to patent US11174268B2, “Benzenesulfonamide compouds and their use as therapeutic agents” (Xenon Pharmaceuticals Inc., priority 2016, dated 2021):
Where a name gives a salt, the structure may show the parent alone. Read-outs that look alike come from different tables or passages of the source.

Columns and labels:
[1] = target: NaV1.5 (Homo sapiens (Human), UniProt Q14524); experiment: Sodium Influx Assay (Flux), NaV1.5
[2] = target: T1, NaV1.6 (Homo sapiens (Human), UniProt Q9UQD0); experiment: Electrophysiological Assay (EP), patch voltage clamp, NaV1.6; type: cell-based; details: HEK-293 cells, whole-cell patch clamp;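 note: sodium current recorded at ambient temperature, channels held inactivated then briefly repolarized to −150 mV for 20 ms before a test pulse, control currents in 0.5% DMSO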
[3] = target: T2, NaV1.1 (Homo sapiens (Human), UniProt P35498); experiment: Sodium Influx Assay (Flux), NaV1.1; type: cell-based; details: Trex HEK293 cells, ANG2 dye, inactivated state;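 note: channels co-expressed with human β1 subunit and held open by modulators, cells exposed to compounds for one hour at room temperature, IC50 from percent inhibition of influx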
[4] = target: T2, NaV1.1; experiment: Electrophysiological Assay (EP), patch voltage clamp, NaV1.1; type: cell-based; details: HEK-293 cells, whole-cell patch clamp;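 note: sodium current block measured at ambient temperature, holding at fully inactivating potential, 20 ms repolarization to −150 mV before test pulse, versus 0.5% DMSO control currents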
[5] = target: T1, NaV1.6; experiment: Sodium Influx Assay (Flux), NaV1.6; type: cell-based; details: Trex HEK293 cells, ANG2 dye, inactivated state;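 note: Tetracycline-induced cells, compounds applied for one hour at room temperature with modulators holding channels open, IC50 from percent inhibition of sodium influx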
[6] = read-out: Flux NaV1.5 IC50, Trex HEK293 cells, ANG2 dye, inactivated state

Sequence of NaV1.5 (Q14524 other isoform, or with tags, fused parts or gaps): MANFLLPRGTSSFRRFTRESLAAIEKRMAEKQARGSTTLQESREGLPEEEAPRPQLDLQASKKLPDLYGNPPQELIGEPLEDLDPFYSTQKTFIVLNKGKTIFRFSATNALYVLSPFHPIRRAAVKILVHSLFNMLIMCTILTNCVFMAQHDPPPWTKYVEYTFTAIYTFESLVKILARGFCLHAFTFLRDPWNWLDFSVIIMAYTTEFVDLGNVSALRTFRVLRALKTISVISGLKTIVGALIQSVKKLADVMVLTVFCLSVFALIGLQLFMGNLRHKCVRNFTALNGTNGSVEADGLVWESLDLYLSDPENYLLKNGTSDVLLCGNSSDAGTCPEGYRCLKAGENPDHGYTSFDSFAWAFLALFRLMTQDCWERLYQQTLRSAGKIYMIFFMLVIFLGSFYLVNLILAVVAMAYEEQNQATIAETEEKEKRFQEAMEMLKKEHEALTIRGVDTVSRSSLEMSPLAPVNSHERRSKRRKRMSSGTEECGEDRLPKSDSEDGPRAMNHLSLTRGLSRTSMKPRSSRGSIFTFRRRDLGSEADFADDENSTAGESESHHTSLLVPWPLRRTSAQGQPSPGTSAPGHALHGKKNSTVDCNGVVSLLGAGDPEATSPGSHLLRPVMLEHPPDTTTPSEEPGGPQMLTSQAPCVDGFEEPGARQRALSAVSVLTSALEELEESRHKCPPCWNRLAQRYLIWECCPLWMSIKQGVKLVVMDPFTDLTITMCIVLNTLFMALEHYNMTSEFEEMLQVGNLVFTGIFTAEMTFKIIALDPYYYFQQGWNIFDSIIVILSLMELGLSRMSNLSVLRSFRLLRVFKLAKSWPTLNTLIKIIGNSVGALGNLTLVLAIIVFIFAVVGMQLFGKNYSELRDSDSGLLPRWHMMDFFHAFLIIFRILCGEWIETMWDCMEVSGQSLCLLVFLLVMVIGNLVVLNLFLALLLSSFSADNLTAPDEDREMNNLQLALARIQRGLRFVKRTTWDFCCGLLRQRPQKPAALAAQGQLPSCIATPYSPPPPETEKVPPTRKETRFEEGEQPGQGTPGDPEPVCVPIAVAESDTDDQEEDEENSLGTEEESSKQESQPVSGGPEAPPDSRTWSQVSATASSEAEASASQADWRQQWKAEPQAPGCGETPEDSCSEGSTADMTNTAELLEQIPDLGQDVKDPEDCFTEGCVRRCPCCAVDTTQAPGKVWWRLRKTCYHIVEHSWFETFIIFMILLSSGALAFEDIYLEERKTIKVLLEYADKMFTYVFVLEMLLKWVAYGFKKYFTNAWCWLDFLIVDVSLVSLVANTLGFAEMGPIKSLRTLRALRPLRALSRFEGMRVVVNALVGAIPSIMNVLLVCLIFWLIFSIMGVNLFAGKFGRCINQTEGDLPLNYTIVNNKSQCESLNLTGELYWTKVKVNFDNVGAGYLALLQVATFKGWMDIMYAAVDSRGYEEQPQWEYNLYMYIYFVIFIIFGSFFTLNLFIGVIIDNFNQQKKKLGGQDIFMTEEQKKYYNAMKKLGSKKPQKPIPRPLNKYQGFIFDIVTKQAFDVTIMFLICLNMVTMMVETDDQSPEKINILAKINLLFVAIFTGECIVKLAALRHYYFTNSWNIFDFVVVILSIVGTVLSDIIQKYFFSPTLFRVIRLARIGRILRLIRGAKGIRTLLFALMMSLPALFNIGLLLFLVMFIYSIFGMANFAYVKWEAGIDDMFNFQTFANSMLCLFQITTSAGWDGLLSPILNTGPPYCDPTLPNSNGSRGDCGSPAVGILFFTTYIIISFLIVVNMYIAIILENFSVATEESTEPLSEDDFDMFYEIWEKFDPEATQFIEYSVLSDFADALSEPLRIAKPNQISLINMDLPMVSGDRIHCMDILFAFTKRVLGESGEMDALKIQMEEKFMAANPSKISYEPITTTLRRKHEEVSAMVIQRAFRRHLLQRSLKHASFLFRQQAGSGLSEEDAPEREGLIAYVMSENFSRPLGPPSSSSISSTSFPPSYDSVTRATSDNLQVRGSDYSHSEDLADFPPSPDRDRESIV
T1 sequence (Q9UQD0 whole entry): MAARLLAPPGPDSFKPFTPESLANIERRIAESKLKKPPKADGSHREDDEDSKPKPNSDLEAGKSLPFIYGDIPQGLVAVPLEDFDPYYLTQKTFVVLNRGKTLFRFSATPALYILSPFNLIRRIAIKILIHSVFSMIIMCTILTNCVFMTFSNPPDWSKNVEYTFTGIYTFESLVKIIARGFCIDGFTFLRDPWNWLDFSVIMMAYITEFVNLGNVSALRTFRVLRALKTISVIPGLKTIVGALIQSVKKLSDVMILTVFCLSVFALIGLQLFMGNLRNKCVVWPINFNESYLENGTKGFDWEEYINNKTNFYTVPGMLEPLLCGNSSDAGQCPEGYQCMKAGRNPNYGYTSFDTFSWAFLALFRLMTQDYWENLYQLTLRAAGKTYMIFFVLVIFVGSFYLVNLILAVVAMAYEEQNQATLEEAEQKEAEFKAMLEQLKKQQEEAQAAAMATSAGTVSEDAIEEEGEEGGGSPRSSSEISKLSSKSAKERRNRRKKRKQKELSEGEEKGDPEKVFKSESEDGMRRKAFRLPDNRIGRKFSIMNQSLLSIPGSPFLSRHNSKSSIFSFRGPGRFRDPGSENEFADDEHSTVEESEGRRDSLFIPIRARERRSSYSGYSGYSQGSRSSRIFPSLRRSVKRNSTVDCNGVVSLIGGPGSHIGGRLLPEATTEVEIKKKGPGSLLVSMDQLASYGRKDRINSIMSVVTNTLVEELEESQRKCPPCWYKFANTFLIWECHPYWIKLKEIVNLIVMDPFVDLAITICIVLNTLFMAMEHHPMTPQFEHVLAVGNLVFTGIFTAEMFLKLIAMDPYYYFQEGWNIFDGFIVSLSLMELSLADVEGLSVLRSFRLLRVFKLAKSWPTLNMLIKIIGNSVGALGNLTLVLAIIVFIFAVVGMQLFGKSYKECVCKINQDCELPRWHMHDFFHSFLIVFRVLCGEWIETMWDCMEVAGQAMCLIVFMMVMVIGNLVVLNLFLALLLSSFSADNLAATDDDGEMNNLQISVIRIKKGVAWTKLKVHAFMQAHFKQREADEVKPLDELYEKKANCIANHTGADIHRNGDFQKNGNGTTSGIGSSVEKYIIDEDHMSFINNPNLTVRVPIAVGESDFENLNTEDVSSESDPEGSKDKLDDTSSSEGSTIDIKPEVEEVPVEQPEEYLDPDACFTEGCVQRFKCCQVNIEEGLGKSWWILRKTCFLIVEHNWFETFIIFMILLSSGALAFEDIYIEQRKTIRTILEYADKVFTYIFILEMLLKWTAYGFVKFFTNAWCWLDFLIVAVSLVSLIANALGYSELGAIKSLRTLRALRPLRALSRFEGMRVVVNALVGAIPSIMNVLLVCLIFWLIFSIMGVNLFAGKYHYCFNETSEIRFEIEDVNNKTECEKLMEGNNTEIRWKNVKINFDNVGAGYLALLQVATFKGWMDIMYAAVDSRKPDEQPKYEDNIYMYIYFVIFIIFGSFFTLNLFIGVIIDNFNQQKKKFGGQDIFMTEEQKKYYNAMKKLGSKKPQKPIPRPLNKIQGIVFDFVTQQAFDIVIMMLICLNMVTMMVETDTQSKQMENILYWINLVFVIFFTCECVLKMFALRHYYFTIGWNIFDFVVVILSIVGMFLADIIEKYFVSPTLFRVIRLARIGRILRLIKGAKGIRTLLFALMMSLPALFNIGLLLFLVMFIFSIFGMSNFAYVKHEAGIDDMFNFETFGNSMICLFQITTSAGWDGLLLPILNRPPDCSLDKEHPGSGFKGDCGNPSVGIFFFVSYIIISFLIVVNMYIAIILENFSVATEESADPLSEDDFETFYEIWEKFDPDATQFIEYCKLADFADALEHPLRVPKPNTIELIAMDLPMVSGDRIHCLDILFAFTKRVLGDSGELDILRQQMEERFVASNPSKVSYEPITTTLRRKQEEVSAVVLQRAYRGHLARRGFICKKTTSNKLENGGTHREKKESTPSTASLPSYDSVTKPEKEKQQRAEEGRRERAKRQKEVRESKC

Compound	IC50 [1, 6]	IC50 [2]	IC50 [3]	IC50 [4]	IC50 [5]	IC50 [1]
O=S(=O)(Nc1cccc(F)n1)c1cc(Cl)c(NCc2c(F)cccc2CN2CCC2)cc1F [Example 138, 4-((2-(azetidin-1-ylmethyl)-6-fluorobenzyl)amino)-5-chloro-2-fluoro-N-(6-fluoropyridin-2-yl)benzenesulfonamide]	9.85 µM	0.043 µM	5.76 µM	10 µM	0.151 µM	–
CN(C)C[C@H](Nc1cc(F)c(S(=O)(=O)Nc2nccs2)cc1Cl)c1ccccc1 [Example 65, (R)-5-chloro-4-((2-(dimethylamino)-1-phenylethyl)amino)-2-fluoro-N-(thiazol-2-yl)benzenesulfonamide 2,2,2-trifluoroacetate]	30 µM	0.087 µM	2.23 µM	10 µM	1.02 µM	–
O=S(=O)(Nc1cscn1)c1cc(Cl)c(NCc2c(F)cccc2CN2CC(F)C2)cc1F [Example 247, 5-chloro-2-fluoro-4-((2-fluoro-6-((3-fluoroazetidin-1-yl)methyl)benzyl)amino)-N-(thiazol-4-yl)benzenesulfonamide]	30 µM	0.409 µM	25.3 µM	10 µM	6.16 µM	–
O=S(=O)(Nc1cscn1)c1c(F)cc(NCc2c(Cl)cccc2CN2CC3(COC3)C2)cc1F [Example 295, 4-((2-((2-oxa-6-azaspiro[3.3]heptan-6-yl)methyl)-6-chlorobenzyl)amino)-2,6-difluoro-N-(thiazol-4-yl)benzenesulfonamide formate]	30 µM	0.042 µM	12.1 µM	10 µM	0.383 µM	–
C[C@H](Nc1cc(F)c(S(=O)(=O)Nc2cnccn2)cc1Cl)c1cc(Cl)ccc1F [Example 243]	–	6.25 µM	≥ 30 µM	10 µM	8.68 µM	≥ 30 µM
O=S(=O)(Nc1cscn1)c1cc(Cl)c(NCc2cccc3ccncc23)cc1F [Example 96, 5-chloro-2-fluoro-4-((isoquinolin-8-ylmethyl)amino)-N-(thiazol-4-yl)benzenesulfonamide 2,2,2-trifluoroacetate]	16 µM	0.098 µM	12.6 µM	10 µM	0.239 µM	–
O=S(=O)(Nc1nccs1)c1cc(Cl)c(NC2(c3ccc(F)cc3)CC2)cc1F [Example 44, 5-chloro-2-fluoro-4-((1-(4-fluorophenyl)cyclopropyl)amino)-N-(thiazol-2-yl)benzenesulfonamide]	30 µM	0.13 µM	1.27 µM	2.09 µM	0.347 µM	–
CCC(Nc1ccc(S(=O)(=O)Nc2nccs2)cc1Cl)c1ccccn1 (stereo not shown) [Example 81, 3-chloro-4-((1-(pyridin-2-yl)propyl)amino)-N-(thiazol-2-yl)benzenesulfonamide]	30 µM	0.143 µM	22.5 µM	10 µM	0.652 µM	–
O=S(=O)(Nc1cscn1)c1cc(Cl)c(NCc2c(F)ccc(F)c2CN2CCC2)cc1F [Example 288, 4-((2-(Azetidin-1-ylmethyl)-3,6-difluorobenzyl)amino)-5-chloro-2-fluoro-N-(thiazol-4-yl)benzenesulfonamide hydrochloride]	17.9 µM	0.036 µM	11.8 µM	10 µM	0.18 µM	–
O=S(=O)(Nc1cscn1)c1c(F)cc(NCc2c(F)cccc2CN2CC3(CCO3)C2)cc1F [Example 156, 4-((2-((1-oxa-6-azaspiro[3.3]heptan-6-yl)methyl)-6-fluorobenzyl)amino)-2,6-difluoro-N-(thiazol-4-yl)benzenesulfonamide formate]	30 µM	0.022 µM	24.8 µM	10 µM	0.146 µM	–
O=S(=O)(Nc1nccs1)c1ccc(NC2(c3ccccc3)COC2)c(Cl)c1 [Example 103, 3-chloro-4-((3-phenyloxetan-3-yl)amino)-N-(thiazol-2-yl)benzenesulfonamide]	28.8 µM	0.796 µM	16.6 µM	10 µM	2.91 µM	–
C[C@H](Nc1ccc(S(=O)(=O)Nc2ccncn2)c(F)c1Cl)c1ccccc1Cl [Example 191, (S)-3-chloro-4-((1-(2-chlorophenyl)ethyl)amino)-2-fluoro-N-(pyrimidin-4-yl)benzenesulfonamide]	20 µM	0.112 µM	18.2 µM	10 µM	0.244 µM	–
C[C@H](Nc1cc(F)c(S(=O)(=O)Nc2nccs2)c(F)c1)c1ccccc1F [Example 27, (S)-2,6-difluoro-4-((1-(2-fluorophenyl)ethyl)amino)-N-(thiazol-2-yl)benzenesulfonamide]	8.49 µM	0.012 µM	0.476 µM	0.112 µM	0.069 µM	–
C[C@H](Oc1cc(F)c(S(=O)(=O)Nc2nccs2)cc1Cl)c1cccc(F)c1 [Example 114, (S)-5-chloro-2-fluoro-4-(1-(3-fluorophenyl)ethoxy)-N-(thiazol-2-yl)benzenesulfonamide]	4.64 µM	0.255 µM	5.05 µM	10 µM	0.977 µM	–
5-chloro-2-fluoro-4-((1-(2-fluorophenyl)ethyl)amino)-N-(thiazol-2-yl)benzenesulfonamide [Example 144]	9.67 µM	0.034 µM	2.54 µM	0.907 µM	0.214 µM	–
COc1cccc(CN2CCC2)c1CNc1cc(F)c(S(=O)(=O)Nc2cscn2)c(F)c1 [Example 209, 4-((2-(azetidin-1-ylmethyl)-6-methoxybenzyl)amino)-2,6-difluoro-N-(thiazol-4-yl)benzenesulfonamide 2,2,2-trifluoroacetate]	30 µM	0.076 µM	27.3 µM	10 µM	0.317 µM	–
C[C@H](Oc1cc(F)c(S(=O)(=O)Nc2nccs2)cc1Cl)c1ccccc1 [Example 115, (S)-5-chloro-2-fluoro-4-(1-phenylethoxy)-N-(thiazol-2-yl)benzenesulfonamide]	9.93 µM	0.135 µM	17.5 µM	10 µM	1.39 µM	–
C[C@H](Nc1cc(F)c(S(=O)(=O)Nc2ccncn2)c(F)c1)c1cc(Cl)ccc1F [Example 206, (S)-4-((1-(5-chloro-2-fluorophenyl)ethyl)amino)-2,6-difluoro-N-(pyrimidin-4-yl)benzenesulfonamide 2,2,2-trifluoroacetate]	30 µM	0.076 µM	7.05 µM	10 µM	0.448 µM	–
O=S(=O)(Nc1cscn1)c1cc(Cl)c(N[C@H](CN2CCCC2)c2ccccc2)cc1F [Example 73, (S)-5-chloro-2-fluoro-4-((1-phenyl-2-(pyrrolidin-1-yl)ethyl)amino)-N-(thiazol-4-yl)benzenesulfonamide]	30 µM	1.14 µM	23.1 µM	10 µM	3.87 µM	–
O=S(=O)(Nc1nccs1)c1cc(Cl)c(OCc2ccccc2CN2CCC2)cc1F [Example 136, 4-((2-(azetidin-1-ylmethyl)benzyl)oxy)-5-chloro-2-fluoro-N-(thiazol-2-yl)benzenesulfonamide]	23.7 µM	0.041 µM	19.6 µM	10 µM	0.384 µM	–
C[C@H](Oc1cc(F)c(S(=O)(=O)Nc2nccs2)cc1Cl)c1ccccc1Cl [Example 117, (S)-5-chloro-4-(1-(2-chlorophenyl)ethoxy)-2-fluoro-N-(thiazol-2-yl)benzenesulfonamide]	6.22 µM	0.055 µM	5.89 µM	6.78 µM	0.53 µM	–
Cc1cc(S(=O)(=O)Nc2cscn2)c(F)cc1NCc1c(F)cccc1CN1CC(F)C1 [Example 137, 2-fluoro-4-((2-fluoro-6-((3-fluoroazetidin-1-yl)methyl)benzyl)amino)-5-methyl-N-(thiazol-4-yl)benzenesulfonamide]	30 µM	0.353 µM	30 µM	10 µM	0.588 µM	–
CC[C@H](Nc1cc(F)c(S(=O)(=O)Nc2cccc(F)n2)cc1Cl)c1ccccc1F [Example 316, (S)-5-chloro-2-fluoro-4-((1-(2-fluorophenyl)propyl)amino)-N-(6-fluoropyridin-2-yl)benzenesulfonamide]	5.86 µM	0.264 µM	2.5 µM	5.65 µM	0.961 µM	–
O=S(=O)(Nc1cscn1)c1cc(Cl)c(NC2(c3ccccc3)CC2)cc1F [Example 20, 5-chloro-2-fluoro-4-((1-phenylcyclopropyl)amino)-N-(thiazol-4-yl)benzenesulfonamide]	30 µM	1.18 µM	30 µM	10 µM	2.05 µM	–
O=S(=O)(Nc1nccs1)c1cc(Cl)c(NC2(c3ccccc3F)CCC2)cc1F [Example 107, 5-chloro-2-fluoro-4-((1-(2-fluorophenyl)cyclobutyl)amino)-N-(thiazol-2-yl)benzenesulfonamide]	7.4 µM	0.138 µM	10.3 µM	8.62 µM	0.656 µM	–
C[C@H](Oc1cc(F)c(S(=O)(=O)Nc2nccs2)cc1Cl)c1c(F)cccc1F [Example 119, (S)-5-chloro-4-(1-(2,6-difluorophenyl)ethoxy)-2-fluoro-N-(thiazol-2-yl)benzenesulfonamide]	1.82 µM	0.023 µM	5.72 µM	8.94 µM	0.31 µM	–
